Source: ChEMBL document CHEMBL1201862, “PubChem BioAssay data set” (2004)
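96-well plates; 48 h exposure; 5 concentrations. Endpoints by linear interpolation between flanking doses. Not reached: highest tested concentration assigned. GI50 marks 50% less growth.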 The source made the active and inactive calls. No stated cut-off is given here; in the data, active = GI50 up to about 1.1 µM and inactive = higher. Where a SMILES comes first, the peptide text is derived from it. [ ]: non-standard residue; d: D form. Phe(4-NO2) = N[CH](Cc1ccc([N+](=O)[O-])cc1)C(=O)O

Key:
Test in all cases: inhibition of tumour cell growth, NCI panel, 48 h
[1] = system: ACHN
[2] = system: COLO 205
[3] = system: IGROV-1
[4] = system: M14
[5] = system: MOLT-4
[6] = system: Malme-3M
[7] = system: NCI-H23
[8] = system: OVCAR-8
[9] = system: SK-MEL-28
[10] = system: SK-MEL-2
[11] = system: SK-OV-3
[12] = system: SNB-19
[13] = system: SR
[14] = system: U-251
[15] = system: UACC-62
[16] = system: UO-31
[17] = system: A498
[18] = system: HCC 2998
[19] = system: OVCAR-3

Measured: GI50

COC(=O)CCC(NC(=O)C(CCC(=O)OC)NC(=O)C(CCC(=O)OC)NC(=O)C(CCC(=O)OC)NC(=O)C(CCC(=O)OC)NC(=O)C(Cc1ccc([N+](=O)[O-])cc1)NC(=O)C(CCC(=O)OC)NC(=O)C(CCC(=O)OC)NC(=O)C(CCC(=O)OC)NC(=O)C(CCC(=O)OC)NC(=O)C(CCC(=O)OC)NC(C)=O)C(N)=O (centres undefined) (Ac-E(OMe)E(OMe)E(OMe)E(OMe)E(OMe)[Phe(4-NO2)]E(OMe)E(OMe)E(OMe)E(OMe)E(OMe)-NH2; configuration not given here)
inactive: [1] > 100 µM | [2] > 100 µM | [3] > 100 µM | [4] 37.9 µM | [5] > 100 µM | [6] > 100 µM | [7] > 100 µM | [8] > 100 µM | [9] > 100 µM | [10] > 100 µM | [11] 99.3 µM | [12] > 100 µM | [13] > 100 µM | [14] > 100 µM | [15] > 10 µM | [16] > 100 µM

Cc1cc(N(CCC#N)S(=O)(=O)c2ccccc2)ccc1/C=C1N=C(/C=C/c2ccccc2)OC\1=O
inactive: [17] > 100 µM | [1] > 100 µM | [2] > 100 µM | [18] > 100 µM | [3] > 100 µM | [4] > 100 µM | [5] 98.2 µM | [6] > 100 µM | [7] > 100 µM | [19] > 100 µM | [8] > 100 µM | [9] > 100 µM | [10] > 100 µM | [11] > 100 µM | [12] > 100 µM | [14] > 100 µM | [15] > 100 µM | [16] 70.8 µM

CN1c2ccccc2C(=O)NC12CCN(CC1COc3ccccc3O1)CC2 (centres undefined)
inactive: [17] 20.3 µM | [1] 19.6 µM | [2] 48.3 µM | [18] > 100 µM | [3] 45.1 µM | [4] 27.8 µM | [5] 23.1 µM | [6] 33 µM | [7] 45.8 µM | [8] 60.5 µM | [9] 55.3 µM | [11] > 100 µM | [12] 31.3 µM | [13] 23.8 µM | [14] 40.2 µM | [15] 29.7 µM | [16] 16.9 µM

CCOC(=O)C1S/C(=N/c2ccc(Cl)cc2C)N=C1C (centres undefined)
inactive: [17] 37.1 µM | [1] 19.8 µM | [2] 17.1 µM | [18] 20.7 µM | [3] 25.1 µM | [4] 19.5 µM | [5] 9.77 µM | [6] 20.2 µM | [7] 16.5 µM | [19] 20.8 µM | [8] 28.1 µM | [9] 25.2 µM | [10] 16.4 µM | [12] 26.6 µM | [14] 15.8 µM | [15] 14.1 µM | [16] 17.3 µM

C/C(=N\NC(=O)C[n+]1ccccc1)c1sc(-c2nc(C)c(/C(C)=N/NC(=O)C[n+]3ccccc3)s2)nc1C
inactive: [17] > 100 µM | [1] > 100 µM | [2] > 100 µM | [18] > 100 µM | [3] > 100 µM | [4] > 100 µM | [5] 95.9 µM | [6] > 100 µM | [7] > 100 µM | [19] > 100 µM | [8] > 100 µM | [9] > 100 µM | [10] > 100 µM | [11] > 100 µM | [12] > 100 µM | [14] > 100 µM | [15] 65 µM | [16] > 100 µM

CCCCCCCCCCCCCC(=O)OCC1OC(=O)CC1O (centres undefined)
inactive: [17] > 100 µM | [1] > 100 µM | [2] > 100 µM | [18] > 100 µM | [3] 88.5 µM | [4] 21.9 µM | [5] 35.2 µM | [6] > 100 µM | [7] > 100 µM | [19] > 100 µM | [8] > 100 µM | [10] > 100 µM | [11] > 100 µM | [12] > 100 µM | [14] > 100 µM | [15] 94 µM | [16] 20.2 µM

CCOC(=O)C1(Cc2ccccc2)CCCCCN1 (centres undefined)
inactive: [1] > 100 µM | [2] > 100 µM | [18] > 100 µM | [3] > 100 µM | [4] > 100 µM | [6] 50.1 µM | [7] > 100 µM | [19] > 100 µM | [8] > 100 µM | [9] > 100 µM | [11] > 100 µM | [14] > 100 µM | [15] > 100 µM | [16] > 100 µM

COc1ccc(C2Oc3c(cc(O)c(OC)c3C)[C@@H]2C)cc1OC (some centres undefined)
inactive: [17] > 100 µM | [1] > 100 µM | [2] > 100 µM | [18] > 100 µM | [3] > 100 µM | [4] > 100 µM | [5] 76.2 µM | [6] > 100 µM | [7] > 100 µM | [19] > 100 µM | [8] > 100 µM | [9] > 100 µM | [10] > 100 µM | [11] > 100 µM | [12] > 100 µM | [14] > 100 µM | [15] 90.2 µM | [16] 66.5 µM

C=CCCCCCCCCC(=O)NS(=O)(=O)c1ccccc1
inactive: [17] > 100 µM | [1] 71 µM | [2] > 100 µM | [18] > 100 µM | [3] > 100 µM | [4] > 100 µM | [5] 48.6 µM | [6] > 100 µM | [7] > 100 µM | [19] > 100 µM | [8] > 100 µM | [9] 99.3 µM | [10] > 100 µM | [11] > 100 µM | [12] > 100 µM | [14] 77.4 µM | [15] 53.2 µM | [16] 30.7 µM

Oc1cc(-c2ccc[nH]2)nc2cc3c(cc12)OCO3
inactive: [17] 18.6 µM | [1] 88.1 µM | [2] 18.5 µM | [18] 28.8 µM | [3] 33.3 µM | [4] 32.2 µM | [5] 39.7 µM | [6] 17.1 µM | [8] 46.7 µM | [9] 65.2 µM | [10] 48.3 µM | [12] 37.7 µM | [13] 37.2 µM | [14] 65.9 µM | [15] 27 µM | [16] 56.5 µM

O=[N+]([O-])c1nccn1COCCBr
inactive: [1] > 100 µM | [2] > 10 µM | [4] > 100 µM | [5] > 100 µM | [6] > 100 µM | [7] > 100 µM | [19] > 100 µM | [8] > 100 µM | [9] > 100 µM | [10] > 100 µM | [11] > 100 µM | [12] > 100 µM | [13] > 100 µM | [14] > 100 µM | [15] > 100 µM | [16] > 100 µM

CC(C)c1ccccc1NC(=O)/C(Cl)=C1/Sc2ccccc2NC1=O
inactive: [17] 32.6 µM | [1] 37.4 µM | [2] 21.4 µM | [18] 23.6 µM | [3] 27 µM | [4] 22.4 µM | [5] 24.8 µM | [6] 20 µM | [7] 19.6 µM | [8] 43.4 µM | [9] 33.4 µM | [10] 15.7 µM | [11] 18.4 µM | [12] 38.5 µM | [14] 35 µM | [15] 20.3 µM | [16] 32.8 µM

Cc1cccc2c1C(=O)OC2(C)c1cccc2ccccc12 (centres undefined)
inactive: [1] 30.6 µM | [18] 20.9 µM | [4] 13 µM | [5] 26.2 µM | [6] 25.5 µM | [7] 30.8 µM | [19] 26.9 µM | [8] 32.3 µM | [9] 41.3 µM | [10] 23.8 µM | [12] 78.5 µM | [13] 23.2 µM | [14] 26.2 µM | [16] 32.8 µM

COc1ccc(/C=C2\C(=O)N(C(=O)c3ccc(NC(C)=O)cc3)N=C2C)cc1OC
inactive: [1] > 100 µM | [2] > 100 µM | [18] > 100 µM | [4] > 100 µM | [5] > 100 µM | [6] > 100 µM | [7] > 100 µM | [19] > 100 µM | [8] > 100 µM | [9] > 100 µM | [10] > 100 µM | [12] > 100 µM | [13] > 100 µM | [16] > 100 µM

CC1(CO)OC1COCc1ccccc1 (centres undefined)
inactive: [1] > 100 µM | [2] > 100 µM | [3] > 100 µM | [4] > 100 µM | [5] > 100 µM | [6] > 100 µM | [7] > 100 µM | [19] > 100 µM | [8] > 100 µM | [10] > 100 µM | [11] > 100 µM | [12] > 100 µM | [13] > 100 µM | [14] > 100 µM | [15] > 100 µM | [16] > 100 µM

CCCCCCCCCCCCCCCC(=O)OCC1OC(n2cc(F)c(=O)[nH]c2=O)C(NC(=O)N(CCCl)N=O)C(O)C1O (centres undefined)
inactive: [17] 4.44 µM | [1] 1.64 µM | [2] 4.41 µM | [18] 2.71 µM | [3] 4.43 µM | [4] 4.06 µM | [5] 1.21 µM | [6] 4.47 µM | [19] 8.04 µM | [8] 3.86 µM | [9] 2.37 µM | [10] 1.35 µM | [11] 5.45 µM | [16] 12.3 µM
active: [7] 0.731 µM | [12] 0.979 µM | [14] 0.0585 µM | [15] 0.0103 µM
